Experimental data published in BigSolDB 2.1.

COc1ccc(Cl)cc1C(=O)NCCc1ccc(S(=O)(=O)NC(=O)NC2CCCCC2)cc1
solubility (mole fraction)
Conditions	288.15 K	293.15 K	298.15 K	303.15 K	308.15 K	313.15 K	318.15 K	323.15 K
in acetonitrile	8e-05	0.000106	0.000144	0.000184	0.000231	0.0003	0.00043	0.000571
in isopropanol	0.000106	0.000121	0.000168	0.000231	0.000309	0.000404	0.000577	0.000863
in methanol	0.000181	0.000229	0.000289	0.000365	0.000451	0.000614	0.000941	0.00131
in n-propanol	0.000155	0.000193	0.000237	0.000302	0.000428	0.000572	0.000751	0.00097
in water	9.02e-08	1.02e-07	1.26e-07	1.57e-07	2.18e-07	3.04e-07	4.35e-07	7.67e-07
